Results from patent publication US8455525B2, “Selective androgen receptor modulators” (Radius Health, Inc., priority 2008, dated 2013).
Where a name gives a salt, the structure may show the parent alone. Read-outs that look alike come from different tables or passages of the source.

Biological target: T1, androgen receptor (AR) (Rattus norvegicus, UniProt P15207)
T1 construct: purchased Invitrogen, Madison, Wis
T1 sequence (P15207 651-902 limits assumed): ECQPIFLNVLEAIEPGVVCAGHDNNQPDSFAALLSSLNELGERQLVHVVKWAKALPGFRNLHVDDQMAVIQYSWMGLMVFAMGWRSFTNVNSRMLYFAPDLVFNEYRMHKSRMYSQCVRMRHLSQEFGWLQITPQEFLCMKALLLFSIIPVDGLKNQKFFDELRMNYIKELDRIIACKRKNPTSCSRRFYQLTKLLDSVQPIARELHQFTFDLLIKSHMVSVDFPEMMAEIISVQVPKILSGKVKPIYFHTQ
Experiment: androgen receptor binding assay (fluorescence polarization, Fluormone AL Green competition)
Procedure: The assay was performed as specified by the manufacturer (Invitrogen, Madison, Wis.). Briefly, 1 μl of 10 mM compound was added to 500 μl of AR screening buffer in a 1.5 ml eppendorf tube to make a 2×10^−5M stock. 10-fold serial dilutions of the test compounds were prepared ranging in concentration from 10^−5M to 10^−12M. Each dilution was added in triplicate to a black 384-microtiter plate. The test compounds will be diluted 2-fold in the final reaction. 2×AR-Fluormone™ complex was prepared with 2 nM Flourmone AL Green™ and 30 nM AR. 25 μl of 2× complex was aliquoted to each reaction well, such that the final reaction volume was 50 μl per well. Plate was sealed with a foil cover and incubated in the dark at room temperature for 4 h. Polarization values for each well were measured. The polarization values were plotted against the concentration of the test compound. […] As a control, a competition curve for R1881 (methyltrienolone) was performed for each assay. Curve Fitting was performed using GraphPad Prism® software from GraphPad™ Software Inc. Binding data are reported as a single determination if the experiment was run once only and as the average of experiments if the binding experiment was performed two or more times with that compound.
Where multiple data points have been taken, the value reported is the average of the multiple determinations.

**Q.** `Cc1c(N[C@@H](c2nnc(-c3ccc(Cl)cc3)o2)[C@@H](C)O)ccc(C#N)c1Cl` [Example 20, 2-Chloro-4-((1R,2R)-1-(5-(4-chlorophenyl)-1,3,4-oxadiazol-2-yl)-2-hydroxypropylamino)-3-methylbenzonitrile] was tested. Which IC50 did it give?
**A.** The IC50 was 15 nM.

**Q.** How did the IC50 turn out when `C[C@H](O)[C@@H](Nc1ccc(C#N)c(Cl)c1)c1nnc(-c2ccc(C#N)cc2)o1` [Example 50, 2-Chloro-4-((1R,2S)-1-(5-(4-cyanophenyl)-1,3,4-oxadiazol-2-yl)-2-hydroxypropylamino)benzonitrile] was run?
**A.** The IC50 was 5 nM.

**Q.** With `CCc1c(N[C@@H](c2nnc(-c3ccc(C#N)cc3)o2)[C@@H](C)O)ccc(C#N)c1Cl` [Example 54, 2-Chloro-4-((1R,2R)-1-(5-(4-cyanophenyl)-1,3,4-oxadiazol-2-yl)-2-hydroxypropylamino)-3-ethylbenzonitrile] as the compound, how does the IC50 read?
**A.** Its IC50 is 1 nM.

**Q.** Which IC50 does the source give for `Cc1c(N[C@@H](c2nnc(-c3ccccc3)s2)[C@@H](C)O)ccc(C#N)c1Cl` [Example 26, 2-chloro-4-((1R,2R)-2-hydroxy-1-(5-phenyl-1,3,4-thiadiazol-2-yl)propylamino)-3-methylbenzonitrile] here?
**A.** Its IC50 is 10 nM.

**Q.** How did the IC50 turn out when `Cc1c(N[C@@H](c2nnc(-c3ccc(O)cc3)o2)[C@@H](C)O)ccc(C#N)c1Cl` [Example 10, 2-chloro-4-((1R,2R)-2-hydroxy-1-(5-(4-hydroxyphenyl)-1,3,4-oxadiazol-2-yl)propylamino)-3-methylbenzonitrile] was run?
**A.** The IC50 was 15 nM.

**Q.** How did the IC50 (single determination or average of multiple determinations, read-out: Binding IC50 (AR-Binding Affinity)) turn out when `C[C@H](O)[C@@H](Nc1ccc(C#N)c2sccc12)c1nnc(-c2ccc(C#N)cc2)o1` [Example 60, 4-((1R,2S)-1-(5-(4-cyanophenyl)-1,3,4-oxadiazol-2-yl)-2-hydroxypropylamino)benzo[b]thiophene-7-carbonitrile] was run?
**A.** Its IC50 is 8 nM.

**Q.** With `C[C@H](O)[C@@H](Nc1ccc(C#N)c(C(F)(F)F)c1)c1nnc(-c2ccccc2)o1` [Example 16, 4-((1R,2S)-2-hydroxy-1-(5-phenyl-1,3,4-oxadiazol-2-yl)propylamino)-2-(trifluoromethyl)benzonitrile] as the compound, how does the IC50 read?
**A.** The IC50 was 35 nM.

**Q.** Which IC50 does the source give for `C[C@H](O)[C@@H](Nc1ccc(C#N)c(Cl)c1Cl)c1nnc(-c2ccc(Cl)cc2)o1` [Example 34, 2,3-Dichloro-4-((1R,2S)-1-(5-(4-chlorophenyl)-1,3,4-oxadiazol-2-yl)-2-hydroxypropylamino)benzonitrile] here?
**A.** Its IC50 is 4 nM.

**Q.** `Cc1c(N[C@@H](c2nnc(-c3ccc(F)c(O)c3)o2)[C@H](C)O)ccc(C#N)c1Cl` [Example 40, 2-Chloro-4-((1R,2S)-1-(5-(4-fluoro-3-hydroxyphenyl)-1,3,4-oxadiazol-2-yl)-2-hydroxypropylamino)-3-methylbenzonitrile] was tested. Which IC50 did it give?
**A.** The IC50 was 0.2 nM.

**Q.** For `Cc1c(N[C@@H](c2nnc(-c3ccc(O)c(F)c3)o2)[C@H](C)O)ccc(C#N)c1Cl` [Example 29, 2-chloro-4-((1R,2S)-1-(5-(3-fluoro-4-hydroxyphenyl)-1,3,4-oxadiazol-2-yl)-2-hydroxypropylamino)-3-methylbenzonitrile], which IC50 is on record?
**A.** The IC50 was 0.03 nM.

**Q.** Which IC50 does the source give for `Cc1c(N[C@@H](c2nnc(-c3ccc(Cl)cc3)o2)[C@H](C)O)ccc(C#N)c1Cl` [Example 4, 2-chloro-4-((1R,2S)-1-(5-(4-chlorophenyl)-1,3,4-oxadiazol-2-yl)-2-hydroxypropylamino)-3-methylbenzonitrile] here?
**A.** The IC50 was 11 nM.

**Q.** `COc1ccc(-c2nnc([C@H](Nc3ccc(C#N)c(Cl)c3C)[C@H](C)O)o2)cc1` [Example 2, 2-chloro-4-((1R,2S)-2-hydroxy-1-(5-(4-methoxyphenyl)-1,3,4-oxadiazol-2-yl)propylamino)-3-methylbenzonitrile] was tested. Which IC50 did it give?
**A.** The IC50 was 5 nM.

**Q.** How did the IC50 turn out when `Cc1c(N[C@@H](c2nnc(-c3cccc(O)c3)o2)[C@H](C)O)ccc(C#N)c1Cl` [Example 7, 2-chloro-4-((1R,2S)-2-hydroxy-1-(5-(3-hydroxyphenyl)-1,3,4-oxadiazol-2-yl)propylamino)-3-methylbenzonitrile] was run?
**A.** Its IC50 is 0.4 nM.

**Q.** Which IC50 does the source give for `C[C@@H](O)[C@@H](Nc1ccc(C#N)c2ccccc12)c1nnc(-c2ccccc2)o1` [Example 52, 4-((1R,2R)-2-Hydroxy-1-(5-phenyl-1,3,4-oxadiazol-2-yl)propylamino)-1-naphthonitrile] here?
**A.** The IC50 was 9 nM.

**Q.** How did the IC50 turn out when `Cc1c(N[C@@H](c2nc(-c3ccccc3)no2)[C@@H](C)O)ccc(C#N)c1Cl` [Example 18, 2-chloro-4-((1R,2R)-2-hydroxy-1-(3-phenyl-1,2,4-oxadiazol-5-yl)propylamino)-3-methylbenzonitrile] was run?
**A.** The IC50 was 60 nM.

**Q.** `COc1cccc(-c2nnc([C@H](Nc3ccc(C#N)c(Cl)c3C)[C@H](C)O)o2)c1` [Example 6, 2-chloro-4-((1R,2S)-2-hydroxy-1-(5-(3-methoxyphenyl)-1,3,4-oxadiazol-2-yl)propylamino)-3-methylbenzonitrile] was tested. Which IC50 did it give?
**A.** Its IC50 is 16 nM.

**Q.** With `CCc1c(N[C@@H](c2nnc(-c3ccc(C#N)cc3)o2)[C@H](C)O)ccc(C#N)c1Cl` [Example 47, 2-Chloro-4-((1R,2S)-1-(5-(4-cyanophenyl)-1,3,4-oxadiazol-2-yl)-2-hydroxypropylamino)-3-ethylbenzonitrile] as the compound, how does the IC50 read?
**A.** Its IC50 is 1 nM.

**Q.** With `C[C@@H](O)[C@@H](Nc1ccc(C#N)c2sccc12)c1nnc(-c2ccc(F)cc2)o1` [Example 64, 4-((1R,2R)-1-(5-(4-fluorophenyl)-1,3,4-oxadiazol-2-yl)-2-hydroxypropylamino)benzo[b]thiophene-7-carbonitrile] as the compound, how does the IC50 read?
**A.** Its IC50 is 1 nM.

**Q.** For `C[C@H](O)[C@@H](Nc1ccc(C#N)c2ccccc12)c1nnc(-c2ccccc2)o1` [Example 13, 4-((1R,2S)-2-hydroxy-1-(5-phenyl-1,3,4-oxadiazol-2-yl)propylamino)-1-naphthonitrile], which IC50 is on record?
**A.** Its IC50 is 5 nM.

**Q.** How did the IC50 turn out when `CCc1c(N[C@@H](c2nnc(-c3ccccc3)o2)[C@H](C)O)ccc(C#N)c1Cl` [Example 11, 2-chloro-3-ethyl-4-((1R,2S)-2-hydroxy-1-(5-phenyl-1,3,4-oxadiazol-2-yl)propylamino)benzonitrile] was run?
**A.** Its IC50 is 12 nM.

**Q.** With `Cc1c(N[C@@H](c2nnc(-c3ccc(F)cc3)o2)[C@H](C)O)ccc(C#N)c1Cl` [Example 5, 2-Chloro-4-((1R,2S)-1-(5-(4-fluorophenyl)-1,3,4-oxadiazol-2-yl)-2-hydroxypropylamino)-3-methylbenzonitrile] as the compound, how does the IC50 read?
**A.** The IC50 was 50 nM.

**Q.** For `Cc1c(N[C@@H](c2nnc(-c3ccc(F)cc3F)o2)[C@@H](C)O)ccc(C#N)c1Cl` [Example 35, 2-Chloro-4-((1R,2R)-1-(5-(2,4-difluorophenyl)-1,3,4-oxadiazol-2-yl)-2-hydroxypropylamino)-3-methylbenzonitrile], which IC50 is on record?
**A.** The IC50 was 0.2 nM.

**Q.** How did the IC50 turn out when `Cc1c(N[C@@H](c2nnc(-c3ccc(O)cc3)o2)[C@H](C)O)ccc(C#N)c1Cl` [Example 8, 2-chloro-4-((1R,2S)-2-hydroxy-1-(5-(4-hydroxyphenyl)-1,3,4-oxadiazol-2-yl)propylamino)-3-methylbenzonitrile] was run?
**A.** The IC50 was 15 nM.

**Q.** `C[C@@H](O)[C@@H](Nc1ccc(C#N)c(Cl)c1)c1nnc(-c2ccc(C#N)cc2)o1` [Example 46, 2-Chloro-4-((1R,2R)-1-(5-(4-cyanophenyl)-1,3,4-oxadiazol-2-yl)-2-hydroxypropylamino)-benzonitrile] was tested. Which IC50 did it give?
**A.** The IC50 was 6 nM.

**Q.** `Cc1c(N[C@@H](c2nnc(-c3ccc(OS(=O)(=O)O)cc3)o2)[C@H](C)O)ccc(C#N)c1Cl` [Example 72, Sodium 4-(5-((1R,2S)-1-(3-chloro-4-cyano-2-methylphenylamino)-2-hydroxypropyl)-1,3,4-oxadiazol-2-yl)phenyl sulfate] was tested. Which IC50 did it give?
**A.** Its IC50 is 780 nM.

**Q.** `Cc1c(N[C@@H](c2nnc(-c3ccc(C#N)cc3)o2)[C@H](C)O)ccc(C#N)c1Cl` [Example 22, 2-chloro-4-((1R,2S)-1-(5-(4-cyanophenyl)-1,3,4-oxadiazol-2-yl)-2-hydroxypropylamino)-3-methylbenzonitrile] was tested. Which IC50 did it give?
**A.** The IC50 was 2 nM.

**Q.** With `C[C@H](O)[C@@H](Nc1ccc(C#N)c(Cl)c1)c1nnc(-c2ccc(S(C)(=O)=O)cc2)o1` [Example 48, 2-Chloro-4-((1R,2S)-2-hydroxy-1-(5-(4-(methylsulfonyl)phenyl)-1,3,4-oxadiazol-2-yl)propylamino)benzonitrile] as the compound, how does the IC50 read?
**A.** The IC50 was > 1000 nM.

**Q.** With `Cc1c(N[C@@H](c2nnc(-c3cccc(O)c3)o2)[C@@H](C)O)ccc(C#N)c1Cl` [Example 9, 2-chloro-4-((1R,2R)-2-hydroxy-1-(5-(3-hydroxyphenyl)-1,3,4-oxadiazol-2-yl)propylamino)-3-methylbenzonitrile] as the compound, how does the IC50 read?
**A.** The IC50 was 10 nM.

**Q.** How did the IC50 turn out when `Cc1c(N[C@@H](c2nnc(-c3ccc(Br)cc3)o2)[C@H](C)O)ccc(C#N)c1Cl` [Example 56, 4-((1R,2S)-1-(5-(4-Bromophenyl)-1,3,4-oxadiazol-2-yl)-2-hydroxypropylamino)-2-chloro-3-methylbenzonitrile] was run?
**A.** The IC50 was 10 nM.

**Q.** `Cc1c(N[C@H](CO)c2nnc(-c3ccccc3)o2)ccc(C#N)c1Cl` [Example 17, (R)-2-chloro-4-(2-hydroxy-1-(5-phenyl-1,3,4-oxadiazol-2-yl)ethylamino)-3-methylbenzonitrile] was tested. Which IC50 did it give?
**A.** Its IC50 is 10 nM.

**Q.** `Cc1c(N[C@@H](c2nnc(-c3ccc(C(F)(F)F)cc3)o2)[C@H](C)O)ccc(C#N)c1Cl` [Example 68, 2-chloro-4-((1R,2S)-2-hydroxy-1-(5-(4-(trifluoromethyl)phenyl)-1,3,4-oxadiazol-2-yl)propylamino)-3-methylbenzonitrile] was tested. Which IC50 did it give?
**A.** Its IC50 is 12 nM.
